US20100168090A1, “Active Ingredient Combinations With Insecticidal and Acaricidal Properties” (BAYER CROPSCIENCE AG, priority 2006, published 2010)

Legend:
Format in all cases: in vivo
[1] = tested on: green peach aphid (Myzus persicae); assay: Myzus persicae test (cabbage leaves dipped); details: single active compound; for Kill in % after 1 d: Table A 1
Excerpt: (§1) The expected action for a given combination of two active compounds can be calculated as follows, according to S. R. Colby, Weeds 15 (1967), 20-22:
(§2) If • X is the kill rate, expressed as a percentage of the untreated control, when employing active compound A at an application rate of m g/ha or in a concentration of m ppm, • Y is the kill rate, expressed as a percentage of the untreated control, when employing active compound B at an application rate of n g/ha or in a concentration of n ppm and • E is the kill rate, expressed as a percentage of the untreated control, when employing active compounds A and B at application rates of m and n g/ha or in a concentration of m and n ppm, then
(§3) If the actual kill rate exceeds the calculated value, the kill of the combination is superadditive, i.e. a synergistic effect is present. In this case, the actually observed kill rate must exceed the value calculated using the above formula for the expected kill rate (E).
(§4) Solvent: 7 parts by weight of dimethylformamide Emulsifier: 2 parts by weight of alkylaryl polyglycol ether
(§5) To produce a suitable preparation of active compound, 1 part by weight of active compound is mixed with the stated amounts of solvent and emulsifier, and the concentrate is diluted with emulsifier-containing water to the desired concentration.
Cabbage leaves (Brassica oleracea) which are heavily infested by the green peach aphid (Myzus persicae) are treated by being dipped into the active compound preparation of the desired concentration.
(§6) After the desired period of time, the kill in % is determined. 100% means that all aphids have been killed; 0% means that none of the aphids have been killed. The kill rates determined are entered into Colby's formula.

[2] = tested on: cotton aphid (Aphis gossypii); assay: Aphis gossypii test (cotton leaves dipped); details: single active compound
Excerpt: as §1, §2, §3, §4, §5
Cotton leaves (Gossypium herbaceum) which are heavily infested by the cotton aphid (Aphis gossypii) are treated by being dipped into the active compound preparation of the desired concentration.
as §6

[3] = tested on: larvae of the mustard beetle (Phaedon cochleariae); assay: Phaedon cochleariae larvae test (cabbage leaves dipped); details: single active compound
Excerpt: as §1, §2, §3, §4
To produce a suitable preparation of active compound, 1 part by weight of active compound is mixed with the stated amounts of solvents and emulsifier, and the concentrate is diluted with emulsifier-containing water to the desired concentration.
Cabbage leaves (Brassica oleracea) are treated by being dipped in the active compound preparation of the desired concentration and are populated with larvae of the mustard beetle (Phaedon cochleariae) while the leaves are still moist.
After the desired period of time, the kill in % is determined. 100% means that all beetle larvae have been killed; 0% means that none of the beetle larvae have been killed. The kill rates determined are entered into Colby's formula.

`CCOC(=O)OC1=C(c2cc(C)ccc2C)C(=O)N[C@]12CC[C@@H](OC)CC2` [compound (I-2)] was tested, and the “Kill in % after 1 d” value ([1]; 4 ppm) was 0%, the “Kill in % after 6 d” value ([1]; Table A 3, 4 ppm) was 80% and the “Kill in % after 1 d” value ([2]; 20 ppm) was 5%. The “Kill in % after 6 d” value ([3]; 20 ppm) was 35%.

With `CO[C@H]1CC[C@]2(CC1)NC(=O)C(c1cc(C)ccc1C)=C2O` [compound (I-1)] the “Kill in % after 6 d” value ([1]; Table A 2, 0.8 ppm) was 5% and the “Kill in % after 6 d” value ([3]; 20 ppm) was 10%.

In the case of `CN/C(=N\[N+](=O)[O-])NCc1cnc(Cl)s1` [clothianidin (IIm), clothianidin], the “Kill in % after 6 d” value ([3]; 0.8 ppm) is reported as 25%.

In the case of `CN1COCN(Cc2cnc(Cl)s2)/C1=N\[N+](=O)[O-]` [thiamethoxam (IIg), thiamethoxam], the “Kill in % after 6 d” value ([3]; 0.8 ppm) is reported as 0%.

For `COC1CCC2(CC1)NC(=O)C(c1cc(C)ccc1C)=C2O` (stereo not shown) [compound (I-1-a)], the “Kill in % after 6 d” value ([1]; Table A 2, 0.8 ppm) was 0% and the “Kill in % after 6 d” value ([3]; 20 ppm) was 20%.

In the case of `C/C(=N\C#N)N(C)Cc1ccc(Cl)nc1` [acetamiprid (II-e), acetamiprid], the “Kill in % after 6 d” value ([1]; Table A 3, 0.16 ppm) is reported as 10%.

With `CCOC(=O)OC1=C(c2cc(C)ccc2C)C(=O)NC12CCC(OC)CC2` (stereo not shown) [compound (I-2-a)] the “Kill in % after 1 d” value ([1]; 4 ppm) was 0%, the “Kill in % after 6 d” value ([1]; Table A 3, 4 ppm) was 85% and the “Kill in % after 1 d” value ([2]; 20 ppm) was 10%. For the same compound, the “Kill in % after 6 d” value ([3]; 20 ppm) was 10%.

In the case of `CN/C(=N/CC1CCOC1)N[N+](=O)[O-]` (stereo not shown) [dinotefuran (II l), dinotefuran], the “Kill in % after 6 d” value ([1]; Table A 3, 0.16 ppm) is reported as 0% and the “Kill in % after 1 d” value ([2]; 4 ppm) is reported as 30%.

In the case of `O=[N+]([O-])/N=C1\NCCN1Cc1cnc(Cl)s1` [imidaclothiz (II n), imidaclothiz], the “Kill in % after 6 d” value ([1]; Table A 3, 0.16 ppm) is reported as 0%.

In the case of `N#C/N=C1\SCCN1Cc1ccc(Cl)nc1` [thiacloprid (IIk), thiacloprid], the “Kill in % after 6 d” value ([3]; 0.8 ppm) is reported as 0%.

For `O=[N+]([O-])NC1=NCCN1Cc1ccc(Cl)nc1` [imidacloprid (II-a), imidacloprid], the “Kill in % after 1 d” value ([1]; 0.16 ppm) was 15%, the “Kill in % after 6 d” value ([1]; Table A 2, 0.032 ppm) was 5% and the “Kill in % after 6 d” value ([3]; 0.8 ppm) was 0%.
